Experiment [1] can be described thus: Uncompetitive inhibition of Xanthomonas oryzae pv. Oryzae KS-1-21 GlmU using varying concentration of UTP and 500 uM GlcNAc-1-p by Lineweaver-Burk plot analysis.
Experiment [2] relates to Xanthomonas oryzae pv. oryzae. Kind of experiment: Antibacterial activity against Xanthomonas oryzae pv. oryzae KS-1-21 after 36 to 48 hrs by broth microdilution assay. It is filed as functional.
Experiment [3] is described as follows: Competitive inhibition of Xanthomonas oryzae pv. Oryzae KS-1-21 GlmU using 0.25 to 0.05 mM GlcNAc-1-p and 500 uM UTP by Lineweaver-Burk plot analysis.
The nature of experiment [4]: Inhibition of Xanthomonas oryzae pv. oryzae KS-1-21 uridyltransferase domain of GlmU activity by ion-pair reverse-phase HPLC analysis.
Experiment [5] in a line: Noncompetitive inhibition of Xanthomonas oryzae pv. Oryzae KS-1-21 GlmU using varying concentration of UTP and 500 uM GlcNAc-1-p by Lineweaver-Burk plot analysis.
The nature of experiment [6]: Noncompetitive inhibition of Xanthomonas oryzae pv. Oryzae KS-1-21 GlmU using 0.25 to 0.05 mM GlcNAc-1-p and 500 uM UTP by Lineweaver-Burk plot analysis.
Experiment [7] is described as follows: Uncompetitive inhibition of Xanthomonas oryzae pv. Oryzae KS-1-21 GlmU using 0.25 to 0.05 mM GlcNAc-1-p and 500 uM UTP by Lineweaver-Burk plot analysis.
Experiment [8] in a line: Competitive inhibition of Xanthomonas oryzae pv. Oryzae KS-1-21 GlmU using varying concentration of UTP and 500 uM GlcNAc-1-p by Lineweaver-Burk plot analysis.

Converted amounts (≈) assume the structure as drawn.

Experimental findings from ChEMBL document CHEMBL2034939, “Structure-based virtual screening of novel inhibitors of the uridyltransferase activity of Xanthomonas oryzae pv. oryzae GlmU” (Eur J Med Chem, 2012) are described below.

As a reminder, the Ki is a measure of affinity in units of concentration, obtained from inhibition or displacement. A high value points to weaker binding. As usually defined, the MIC is the lowest concentration that inhibits growth of the organism. A low value points to inhibition by little substance. In general, IC50 refers to the concentration needed to halve the response being measured. Read a low IC50 as greater potency. As to `O=c1cc(-c2ccc(O)c(O)c2)oc2cc(O)cc(O)c12` [LUTEOLIN], the Ki came to 0.99 µM in experiment [1] and 0.44 µM in experiment [3]. Further, 186 µg/mL (≈ 651 µM) was the least that counted as inhibitory in experiment [2] (MIC). The same compound gave a concentration for half-maximal inhibition (IC50) in experiment [4] of 0.81 µM.
Consider `Cc1cc(OCC(=O)NNC(=O)c2ccc(O)cc2O)cc(C)c1Cl`, for which the figures for the Ki in experiment [5] and in experiment [6] were 8.89 µM and 19.4 µM, respectively. In experiment [2], the minimal inhibitory concentration (MIC) stood at 420 µg/mL (≈ 1150 µM). This compound returned an IC50 in experiment [4] of 23.2 µM.
For the compound `O=C(CCCCC(=O)NNC(=O)COc1ccc2ccccc2c1)NNC(=O)COc1ccc2ccccc2c1`, the Ki worked out at 8.23 µM in experiment [7] and 8.1 µM in experiment [8]. The compound further yielded an MIC in experiment [2] of 302 µg/mL (≈ 557 µM). This compound displayed an IC50 in experiment [4] of 14.2 µM.
Compound `COc1ccc(C(=O)/C=C/c2cn(CC(O)CN3CCCCC3)c3ccccc23)cc1OC` (configuration not stated) showed an MIC in experiment [2] of 82 µg/mL (≈ 183 µM). In addition, the 50% inhibitory concentration (IC50) in experiment [4] was more than 100 µM.
For `CCCCCOc1ccc(/C=N/NC(=O)c2nnn(-c3nonc3N)c2CN2CCCCCC2)cc1`, in that order: more than 500 µg/mL and 87.4 µM.
On the same counts, the results for `CCOc1ccc(C(=O)NCCCCCCCNC(=O)c2ccc(OCC)cc2)cc1` are more than 500 µg/mL and 76.5 µM.
On the same counts, the results for `Cc1ccc(OCC(=O)Nc2ccccc2C(=O)NC2CCCCC2)cc1` are more than 500 µg/mL and 84.2 µM.
On to `CCN(CC)c1ccc(/C=C(\NC(=O)c2ccccc2)C(=O)N/N=C/c2cc(O)ccc2Br)cc1`, for which the MIC in experiment [2] was more than 500 µg/mL. The compound further returned a half-inhibitory concentration (IC50) in experiment [4] of 62.5 µM.
